Reference: patent publication US20230172940A1, “METHODS OF EXTENDING LIFESPAN BY ADMINISTERING FERROPTOSIS INHIBITORS” (COLLABORATIVE MEDICINAL DEVELOPMENT, LLC, priority 2020, published 2023)

How the values were obtained:
[1] = system: OP50 E. coli; assay: Bacterial growth assay (OD600); format: cell-based, Escherichia coli; details: after 12 hours, 37° C
Procedure: The effects of test compounds on growth of the OP50 E. coli feed was assayed using optical density at 600 nm (OD600). Using standard microtitre plates, replicate wells of 200 μL of sterile Luria broth were inoculated with 2 μL of an overnight OP50 culture in addition to the stated final concentrations of ampicillin (Amp), Lip-1 and SIH. OD600 measures were taken after 12 hours in an EnSpire (PerkinElmer) spectrophotometric plate reader preset to 37° C., with 30 sec of 200 rpm orbital shaking every 10 minutes.
Data was averaged across duplicate experiments, each with eight replicate wells per treatment where a baseline of Luria broth without an inoculate was subtracted.

[2] = system: C. elegans; assay: Movement; format: in vivo, Caenorhabditis elegans; details: for maximum velocity, 25% Percentile / maximum velocity, 75% Percentile / maximum velocity, Maximum / maximum velocity, Mean / maximum velocity, Median / maximum velocity, Minimum / mean velocity, 25% Percentile / mean velocity, 75% Percentile / mean velocity, Maximum / mean velocity, Mean / mean velocity, Median / mean velocity, Minimum / total distance traveled, 25% Percentile / total distance traveled, 75% Percentile / total distance traveled, Maximum / total distance traveled, Mean / total distance traveled, Median / total distance traveled, Minimum: 250 μM SIH or 200 μM Lip-1, 25° C; for total distance traveled, 25% Percentile / total distance traveled, 75% Percentile / total distance traveled, Maximum / total distance traveled, Mean / total distance traveled, Median / total distance traveled, Minimum: 30 second recording; for age-related decline in mean velocity: Kruskal-Wallis ANOVA H(7)=339.2, p<0.0001; for maximum velocity of aging animals: in vivo
Procedure: A developmentally synchronous population, derived from eggs laid over a 2-hour window, were cultured on NGA media at 25° C. for 48 h, and then as young adult worms were transferred onto three treatment plates for an additional 24 h. The treatment plates included NGM+0.5% (v/v) DMSO (vehicle control, Ctl), NGM+250 μM SIH, and NGM+200 μM Lip-1 (as described above).
Single worms were transferred to a 55 mm NGA assay plate devoid of a bacterial lawn, without a lid, and left to recover from the transfer for 2 minutes. Movement of the adults was then recorded using a stereomicroscope (Leica M80) with transmitted illumination from below. A 30 second video recording was captured using a 3 MP DFC290 HD digital camera (Leica Microsystems) at a rate of 30 frames per second. Pixel length was calibrated using a 25 μm grid slide (Microbrightfield, Inc). Recorded series were analysed using the wrMTrck plugin for ImageJ (www.phage.dk/plugins) and Fiji (a distribution of ImageJ).
The maximum velocity achieved was expressed as mm per second (as derived from the distance between displaced centroids per second). Additional metrics of movement were determined including mean velocity (mm s^−1) and (total) distance travelled (mm). These variables were collated in Prism (v7.0a GraphPad Software) and presented as a scatter plot with medians and interquartile range.

[3] = system: Wild type (N2); assay: Fertility analysis; format: in vivo, Caenorhabditis elegans; details: treated from early adulthood/late L4; for Early fertility (first 24 hours): p>0.4
Procedure: Wild type (N2) adults (4-day post egg lay) were transferred to fresh plates for 30 minutes at 20° C. to establish a developmentally synchronous population. Adult nematodes were then removed, and eggs were then transferred to 25° C. As with the survival analyses, after 48 hours at 25° C., when worms were at the late L4/young adult stage individual nematodes were transferred to plates containing vehicle control, 250 μM SIH, or 200 μM Lip-1. After 24 hours, adult worms were transferred to fresh plates and transferred daily until the end of the fertile period. After allowing progeny to develop for 2 days at 20° C., they were then counted to determine daily and total fertility. Early fertility is determined by the number of progeny laid in the first 24-hour period. Differences in fertility (i.e. early and total reproductive output) were assessed using an ordinary one-way analysis of variance (ANOVA), followed by a Tukey's multiple comparison test (as implemented by Prism v7.0a, GraphPad Software).

[4] = system: C. elegans; assay: Body size analysis; format: in vivo, Caenorhabditis elegans
Procedure: […] The treatment plates included NGA with 0.5% (v/v) DMSO (vehicle control, Ctl), 250 μM SIH, or 200 μM Lip-1 (as described above).
Cohorts of approximately 100 animals were transferred into a 1.5 ml centrifuge tube containing 400 μL S-basal. Following a brief centrifugation excess S-basal was removed leaving the animals suspended in 50 μL. Animals were euthanized and straightened by a 15 second exposure to 60° C. (using a heated water bath). Samples were then mounted between glass slides and a cover slip and immediately imaged. Micrographs were collected using a Leica M80 stereomicroscope and Leica DFC290 HD 3 MP) digital camera. Pixel sizes were defined using a calibrated 25 μm grid slide (Microbrightfield, Inc). Size and shape metrics were extracted from brightfield images were analyzed using the WormSizer plugin for ImageJ.
Data of estimated adult body length and volume were initially assessed for normality using a D'Agostino & Pearson test. Based on this analysis a nonparametric Kruskal-Wallis Analysis of Variance (ANOVA) was performed followed by a Dunn-Šidák test for multiple comparisons (as implemented by Prism v7.0a, GraphPad Software). There was a significant difference between body length (H(10)=432.6, p<0.0001) amongst the groups measured.

O=C(N/N=C/c1ccccc1O)c1ccncc1 [SIH, Salicylaldehyde isonicotinoyl hydrazone]
growth of OP50 E. coli (OD600) [1]: neither Lip-1 nor SIH suppressed bacterial growth
maximum velocity, 25% Percentile ([2]; Day 4): 0.3442 mm per second
maximum velocity, 75% Percentile ([2]; Day 4): 0.4755 mm per second
maximum velocity, Maximum ([2]; Day 4): 0.7127 mm per second
maximum velocity, Mean ([2]; Day 4): 0.392 mm per second
maximum velocity, Median ([2]; Day 4): 0.3733 mm per second
maximum velocity, Minimum ([2]; Day 4): 0.105 mm per second
mean velocity, 25% Percentile ([2]; Day 4): 0.1307 mm s-1
mean velocity, 75% Percentile ([2]; Day 4): 0.1824 mm s-1
mean velocity, Maximum ([2]; Day 4): 0.2629 mm s-1
mean velocity, Mean ([2]; Day 4): 0.1528 mm s-1
mean velocity, Median ([2]; Day 4): 0.1545 mm s-1
mean velocity, Minimum ([2]; Day 4): 0.02713 mm s-1
total distance traveled, 25% Percentile ([2]; Day 4): 3.977 mm
total distance traveled, 75% Percentile ([2]; Day 4): 5.513 mm
total distance traveled, Maximum ([2]; Day 4): 6.951 mm
total distance traveled, Mean ([2]; Day 4): 4.619 mm
total distance traveled, Median ([2]; Day 4): 4.766 mm
total distance traveled, Minimum ([2]; Day 4): 0.8402 mm
maximum velocity, 25% Percentile ([2]; Day 8): 0.174 mm per second
maximum velocity, 75% Percentile ([2]; Day 8): 0.3506 mm per second
maximum velocity, Maximum ([2]; Day 8): 0.6458 mm per second
maximum velocity, Mean ([2]; Day 8): 0.2847 mm per second
maximum velocity, Median ([2]; Day 8): 0.2513 mm per second
maximum velocity, Minimum ([2]; Day 8): 0.1028 mm per second
mean velocity, 25% Percentile ([2]; Day 8): 0.04028 mm s-1
mean velocity, 75% Percentile ([2]; Day 8): 0.1029 mm s-1
mean velocity, Maximum ([2]; Day 8): 0.1739 mm s-1
mean velocity, Mean ([2]; Day 8): 0.07262 mm s-1
mean velocity, Median ([2]; Day 8): 0.05813 mm s-1
mean velocity, Minimum ([2]; Day 8): 0.02239 mm s-1
total distance traveled, 25% Percentile ([2]; Day 8): 1.224 mm
total distance traveled, 75% Percentile ([2]; Day 8): 3.193 mm
total distance traveled, Maximum ([2]; Day 8): 5.235 mm
total distance traveled, Mean ([2]; Day 8): 2.192 mm
total distance traveled, Median ([2]; Day 8): 1.784 mm
total distance traveled, Minimum ([2]; Day 8): 0.6912 mm
age-related decline in mean velocity [2]: attenuates the age-related decline in mean velocity
maximum velocity of aging animals [2]: markedly improved
lifetime reproductive output [3]: no effect
Early fertility (first 24 hours) [3]: not altered
body volume ([4]; Day 4): greater volume than both control and Lip-1 treated worms
body length, mean±SD ([4]; Day 8, control 1440±123 μm, p<0.001): 1696±64 μm
body length versus similarly aged controls ([4]; after 4 days and 8 days of intervention): significantly longer
body volume over time ([4]; in vivo): increase in body volume between Days 1 and 4, but not thereafter

Clc1cccc(CNC2=Nc3ccccc3NC23CCNCC3)c1 [Lip-1, N-[(3-chlorophenyl)methyl]-spiro[piperidine-4,2′(1′H)-quinoxalin]-3′-amine]
growth of OP50 E. coli (OD600) [1]: neither Lip-1 nor SIH suppressed bacterial growth
maximum velocity, 25% Percentile ([2]; Day 4): 0.2711 mm per second
maximum velocity, 75% Percentile ([2]; Day 4): 0.4861 mm per second
maximum velocity, Maximum ([2]; Day 4): 0.7204 mm per second
maximum velocity, Mean ([2]; Day 4): 0.37 mm per second
maximum velocity, Median ([2]; Day 4): 0.3762 mm per second
maximum velocity, Minimum ([2]; Day 4): 0.06351 mm per second
mean velocity, 25% Percentile ([2]; Day 4): 0.05892 mm s-1
mean velocity, 75% Percentile ([2]; Day 4): 0.1839 mm s-1
mean velocity, Maximum ([2]; Day 4): 0.2606 mm s-1
mean velocity, Mean ([2]; Day 4): 0.1244 mm s-1
mean velocity, Median ([2]; Day 4): 0.1349 mm s-1
mean velocity, Minimum ([2]; Day 4): 0.01219 mm s-1
total distance traveled, 25% Percentile ([2]; Day 4): 1.797 mm
total distance traveled, 75% Percentile ([2]; Day 4): 5.397 mm
total distance traveled, Maximum ([2]; Day 4): 7.817 mm
total distance traveled, Mean ([2]; Day 4): 3.685 mm
total distance traveled, Median ([2]; Day 4): 4.126 mm
total distance traveled, Minimum ([2]; Day 4): 0.07633 mm
maximum velocity, 25% Percentile ([2]; Day 8): 0.1478 mm per second
maximum velocity, 75% Percentile ([2]; Day 8): 0.2452 mm per second
maximum velocity, Maximum ([2]; Day 8): 0.5563 mm per second
maximum velocity, Mean ([2]; Day 8): 0.2084 mm per second
maximum velocity, Median ([2]; Day 8): 0.1922 mm per second
maximum velocity, Minimum ([2]; Day 8): 0.05622 mm per second
mean velocity, 25% Percentile ([2]; Day 8): 0.03386 mm s-1
mean velocity, 75% Percentile ([2]; Day 8): 0.06818 mm s-1
mean velocity, Maximum ([2]; Day 8): 0.1644 mm s-1
mean velocity, Mean ([2]; Day 8): 0.05407 mm s-1
mean velocity, Median ([2]; Day 8): 0.04763 mm s-1
mean velocity, Minimum ([2]; Day 8): 0.008319 mm s-1
total distance traveled, 25% Percentile ([2]; Day 8): 1.001 mm
total distance traveled, 75% Percentile ([2]; Day 8): 2.092 mm
total distance traveled, Maximum ([2]; Day 8): 4.926 mm
total distance traveled, Mean ([2]; Day 8): 1.627 mm
total distance traveled, Median ([2]; Day 8): 1.451 mm
total distance traveled, Minimum ([2]; Day 8): 0.2338 mm
age-related decline in mean velocity [2]: attenuates the age-related decline in mean velocity
maximum velocity of aging animals [2]: markedly improved
lifetime reproductive output [3]: small decrease
Early fertility (first 24 hours) [3]: not altered
length or volume ([4]; in vivo): no effect on length or volume
